Data as given in ChEMBL document CHEMBL4371080, “Multiple weak intercalation as a strategy for the inhibition of polymerases” (Bioorg Med Chem Lett, 2019).
Where a SMILES comes first, the peptide text is derived from it. Bridges are numbered along the chain shown (N, C = ends). [ ]: non-standard residue; d: D form. The star is where a group is joined. ξ: configuration not given here. Quinoxaline2carbonyl = O=C(c1cnc2ccccc2n1)*; ξDap = NCC(N)C(=O)O

Assays:
[1] = target: Human immunodeficiency virus type 1 reverse transcriptase (Human immunodeficiency virus 1) (UniProt Q72547); assay: Inhibition of HIV1 reverse transcriptase assessed as reduction in [3H]dTTP incorporation by measuring proportional residual activity ratio at 100 uM using poly(rA)/oligo(dT) as template/primer after 30 mins by scintillation counting method
[2] = target: T1, Human immunodeficiency virus type 1 reverse transcriptase (Human immunodeficiency virus 1, UniProt Q72547); assay: Inhibition of HIV1 reverse transcriptase assessed as reduction in [3H]dTTP incorporation using poly(rA)/oligo(dT) as template/primer after 30 mins by scintillation counting method
[3] = target: T1, Human immunodeficiency virus type 1 reverse transcriptase; assay: Inhibition of HIV1 reverse transcriptase assessed as reduction in [3H]dTTP incorporation using poly(rA)/oligo(dT) as template/primer after 30 mins in presence of Triton-X-100 by scintillation counting method
[4] = target: T1, Human immunodeficiency virus type 1 reverse transcriptase; assay: Inhibition of HIV1 reverse transcriptase assessed as reduction in [3H]dTTP incorporation using poly(rA)/oligo(dT) as template/primer after 30 mins in presence of calf thymus DNA by scintillation counting method
[5] = target: T2, DNA polymerase alpha catalytic subunit (Homo sapiens) (UniProt P09884); assay: Inhibition of human DNA polymerase-alpha assessed as reduction in [3H]dTTP incorporation in to activated calf thymus DNA substrate at 600 uM after 30 mins by scintillation counting method relative to control
T2 sequence (whole entry): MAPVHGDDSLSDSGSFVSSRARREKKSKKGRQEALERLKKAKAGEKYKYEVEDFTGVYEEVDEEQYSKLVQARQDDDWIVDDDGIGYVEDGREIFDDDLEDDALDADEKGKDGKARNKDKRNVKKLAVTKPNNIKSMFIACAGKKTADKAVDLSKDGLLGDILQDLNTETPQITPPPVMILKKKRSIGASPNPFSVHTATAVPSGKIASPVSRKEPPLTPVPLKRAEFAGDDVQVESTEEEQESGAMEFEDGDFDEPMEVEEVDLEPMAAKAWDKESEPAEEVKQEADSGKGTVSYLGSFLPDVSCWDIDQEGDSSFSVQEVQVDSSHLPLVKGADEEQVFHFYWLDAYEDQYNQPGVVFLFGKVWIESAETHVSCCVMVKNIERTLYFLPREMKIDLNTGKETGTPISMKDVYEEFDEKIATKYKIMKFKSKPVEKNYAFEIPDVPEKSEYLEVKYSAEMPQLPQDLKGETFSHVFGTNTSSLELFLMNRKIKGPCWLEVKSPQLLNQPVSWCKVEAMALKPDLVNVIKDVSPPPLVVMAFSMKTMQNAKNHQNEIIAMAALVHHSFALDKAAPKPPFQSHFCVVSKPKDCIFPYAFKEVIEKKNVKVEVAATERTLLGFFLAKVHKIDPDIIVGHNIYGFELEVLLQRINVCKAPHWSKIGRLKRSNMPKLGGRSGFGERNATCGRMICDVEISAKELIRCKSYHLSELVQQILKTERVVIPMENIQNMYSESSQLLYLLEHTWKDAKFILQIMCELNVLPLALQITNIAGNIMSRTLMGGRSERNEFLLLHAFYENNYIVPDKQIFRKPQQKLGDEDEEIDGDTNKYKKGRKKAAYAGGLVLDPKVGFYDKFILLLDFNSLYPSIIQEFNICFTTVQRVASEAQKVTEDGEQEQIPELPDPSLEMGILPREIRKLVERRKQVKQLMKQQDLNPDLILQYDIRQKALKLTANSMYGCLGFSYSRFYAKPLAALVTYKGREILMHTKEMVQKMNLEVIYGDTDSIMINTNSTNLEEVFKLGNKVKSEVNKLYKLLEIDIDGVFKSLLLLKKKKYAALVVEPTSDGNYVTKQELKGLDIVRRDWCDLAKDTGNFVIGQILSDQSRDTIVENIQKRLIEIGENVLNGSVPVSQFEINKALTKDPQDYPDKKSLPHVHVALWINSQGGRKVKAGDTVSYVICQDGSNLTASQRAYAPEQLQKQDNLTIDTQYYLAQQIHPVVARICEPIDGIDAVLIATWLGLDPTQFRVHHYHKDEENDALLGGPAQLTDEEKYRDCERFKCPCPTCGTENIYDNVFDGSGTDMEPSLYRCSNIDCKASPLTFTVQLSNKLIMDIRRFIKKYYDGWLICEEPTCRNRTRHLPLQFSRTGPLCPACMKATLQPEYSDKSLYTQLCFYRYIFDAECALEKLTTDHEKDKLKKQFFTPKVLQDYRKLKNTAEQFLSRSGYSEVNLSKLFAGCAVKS

[6] = target: Human immunodeficiency virus type 1 reverse transcriptase (Human immunodeficiency virus 1) (UniProt Q72547); assay: Inhibition of HIV1 reverse transcriptase assessed as reduction in [3H]dTTP incorporation by measuring proportional residual activity ratio at 20 uM using poly(rA)/oligo(dT) as template/primer after 30 mins by scintillation counting method relative to control
[7] = target: Human immunodeficiency virus type 1 reverse transcriptase (Human immunodeficiency virus 1) (UniProt Q72547); assay: Ratio of IC50 for inhibition of HIV1 reverse transcriptase in presence of calf thymus DNA to IC50 for inhibition of HIV1 reverse transcriptase in absence of calf thymus DNA
[8] = target: Human immunodeficiency virus type 1 reverse transcriptase (Human immunodeficiency virus 1) (UniProt Q72547); assay: Inhibition of HIV1 reverse transcriptase assessed as reduction in [3H]dTTP incorporation by measuring proportional residual activity ratio at 300 uM using poly(rA)/oligo(dT) as template/primer after 30 mins by scintillation counting method

| Ratio [1] | SMILES | IC50 [2] | further results |
| --- | --- | --- | --- |
| 0.39 | NC(=O)[C@@H](Cc1c[nH]c2ccccc12)NC(=O)CCNC(=O)[C@H](N)Cc1c[nH]c2ccccc12 |  |  |
|  | NC(=O)[C@@H](N)Cc1c[nH]c2ccccc12 | 9900 µM | IC50 [3]: 15700 µM |
|  | NCC1NC(=O)C[C@@H](C(N)=O)NC(=O)C(CNC(=O)c2cnc3ccccc3n2)NC(=O)CNC(=O)CNC(=O)CNC(=O)C(CNC(=O)c2cnc3ccccc3n2)NC1=O (stereo partly drawn) ([ξDap][ξDap](Quinoxaline2carbonyl)GGG[ξDap](Quinoxaline2carbonyl)D-NH2; lactam N-7) | 6.5 µM | IC50 [4]: 21.8 µM; inhibition [5]: 89%; Ratio [6]: 0.09; Ratio IC50 [7]: 3.5; IC50 [3]: 7 µM |
|  | O=C(O)c1cnc2ccccc2n1 | 320 µM |  |
| 0.78 | NC(=O)[C@@H](Cc1c[nH]c2ccccc12)NC(=O)CCCNC(=O)[C@@H](N)Cc1c[nH]c2ccccc12 |  |  |
|  | NC(=O)[C@H](Cc1c[nH]c2ccccc12)NC(=O)CCNC(=O)[C@H](N)Cc1c[nH]c2ccccc12 | 188 µM | Ratio [8]: 0.3 |
| 0.55 | NC(=O)[C@H](Cc1c[nH]c2ccccc12)NC(=O)CCCNC(=O)[C@@H](N)Cc1c[nH]c2ccccc12 |  |  |
|  | NC(=O)[C@H](Cc1c[nH]c2ccccc12)NC(=O)CCNC(=O)[C@@H](N)Cc1c[nH]c2ccccc12 | 227 µM | Ratio [8]: 0.25 |
|  | COc1ccc2cc([C@H](C)C(=O)O)ccc2c1 [NAPROXEN SODIUM] | 6700 µM |  |
